# Patent US10245261B2, “Substituted indol-5-ol derivatives and their therapeutic applications” (NantBioScience, Inc., priority 2013, dated 2019)
# Assays:
# KDR(h) = KDR(h) (Homo sapiens, UniProt P35968); assay: KinaseProfiler kinase assay; format: biochemical
# Ret(h) = Ret(h) (Homo sapiens, UniProt P07949); assay: KinaseProfiler kinase assay; format: biochemical
# Protocol: (§1) This example tests the inhibitory properties of representative compounds of the invention in c-Src kinase, Aurora-A kinase, Flt3 kinase, Ret kinase and TrkA Kinase assays (see, Daniele Fancelli et al, J. Med. Chem., 2006, 49 (24), pp 7247-7251). The KinaseProfiler™ Service Assay Protocols (Millipore) was used to test the kinase inhibiting activity of novel compounds from this invention. To do this, the buffer composition was as: 20 mM MOPS, 1 mM EDTA, 0.01% Brij-35, 5% Glycerol, 0.1% β-mercaptoethanol, 1 mg/mL BSA. Test compounds were initially dissolved in DMSO at the desired concentration, then serially diluted to the kinase assay buffer. In a final reaction volume of 25 μL, Aurora-A(h) (5-10 mU) is incubated with 8 mM MOPS pH 7.0, 0.2 mM EDTA, 200 μM LRRASLG (Kemptide), 10 mM MgAcetate and [γ^33P-ATP]. The reaction was initiated by the addition of the MgATP mix. After incubation for 40 minute at room temperature, the reaction was stopped by addition of 5 μL of a 3% phosphoric acid solution. 10 μL of the reaction was then spotted onto a P30 filtermat and washed three times for 5 minutes in 50 mM phosphoric acid and once in methanol prior to drying and scintillation counting. Wells containing substrate but no kinase and wells containing a phosphopeptide control were used to set 0% and 100% phosphorylation value, respectively.
# (§2) The Kinase Hotspot℠ kinase assay was also used to test the compounds for IC50 or % inhibitions (Reaction Biology Corp.). Inhibitory IC50 values were determined by titration of compound at the optimal kinase concentration (Kinase EC50).
# cSRC(h) = cSRC(h) (Homo sapiens, UniProt P12931); assay: KinaseProfiler kinase assay; format: biochemical
# Sequence of cSRC(h) (P12931 whole entry): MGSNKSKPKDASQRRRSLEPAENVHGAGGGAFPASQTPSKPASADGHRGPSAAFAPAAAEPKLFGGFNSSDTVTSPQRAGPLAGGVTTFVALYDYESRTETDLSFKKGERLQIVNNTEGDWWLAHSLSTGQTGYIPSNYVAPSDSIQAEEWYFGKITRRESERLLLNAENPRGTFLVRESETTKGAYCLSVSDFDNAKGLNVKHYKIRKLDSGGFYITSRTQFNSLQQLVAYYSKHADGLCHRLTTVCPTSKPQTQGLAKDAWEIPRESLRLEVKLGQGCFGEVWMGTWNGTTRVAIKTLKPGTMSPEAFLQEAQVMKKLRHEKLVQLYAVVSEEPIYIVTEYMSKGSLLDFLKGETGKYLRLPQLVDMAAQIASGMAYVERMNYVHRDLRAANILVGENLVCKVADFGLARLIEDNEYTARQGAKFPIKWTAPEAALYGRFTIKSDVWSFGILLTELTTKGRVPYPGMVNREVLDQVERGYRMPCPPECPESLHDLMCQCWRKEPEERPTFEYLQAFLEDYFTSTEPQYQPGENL
# Protocol: as §1, §2
# Flt3(h) = molecular target: T1, Flt3(h) (Homo sapiens, UniProt P36888); assay: KinaseProfiler kinase assay; format: biochemical
# T1 sequence (P36888 27-993): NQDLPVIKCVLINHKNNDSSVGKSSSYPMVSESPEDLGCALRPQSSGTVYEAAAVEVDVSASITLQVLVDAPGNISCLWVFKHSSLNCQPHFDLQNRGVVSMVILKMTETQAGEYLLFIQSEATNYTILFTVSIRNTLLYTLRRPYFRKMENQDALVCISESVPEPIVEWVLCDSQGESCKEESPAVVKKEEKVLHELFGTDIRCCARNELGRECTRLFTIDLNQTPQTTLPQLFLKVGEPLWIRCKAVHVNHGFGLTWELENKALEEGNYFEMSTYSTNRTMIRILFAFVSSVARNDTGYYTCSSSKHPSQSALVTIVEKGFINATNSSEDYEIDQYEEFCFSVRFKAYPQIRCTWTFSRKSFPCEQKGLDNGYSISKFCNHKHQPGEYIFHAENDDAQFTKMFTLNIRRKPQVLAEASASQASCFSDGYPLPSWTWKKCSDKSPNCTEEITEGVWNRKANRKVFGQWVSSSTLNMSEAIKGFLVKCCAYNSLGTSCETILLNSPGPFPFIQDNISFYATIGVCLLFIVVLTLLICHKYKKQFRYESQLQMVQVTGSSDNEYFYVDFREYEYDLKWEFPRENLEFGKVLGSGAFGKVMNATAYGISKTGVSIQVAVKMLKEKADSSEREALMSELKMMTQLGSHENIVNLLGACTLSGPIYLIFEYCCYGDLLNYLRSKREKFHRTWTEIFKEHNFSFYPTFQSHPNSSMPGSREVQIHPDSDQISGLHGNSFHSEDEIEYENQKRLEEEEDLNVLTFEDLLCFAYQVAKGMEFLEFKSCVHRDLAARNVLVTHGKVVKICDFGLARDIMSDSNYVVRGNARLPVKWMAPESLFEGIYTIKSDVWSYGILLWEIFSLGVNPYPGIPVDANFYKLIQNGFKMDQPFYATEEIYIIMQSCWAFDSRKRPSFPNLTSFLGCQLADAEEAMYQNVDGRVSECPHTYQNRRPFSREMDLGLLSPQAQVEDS
# Protocol: as §1, §2
# Aurora-A(h) = molecular target: T2, Aurora-A(h) (Homo sapiens, UniProt O14965); assay: KinaseProfiler kinase assay; format: biochemical; settings: for inhibition at 1 µM: read-out: % Inhibition @1 μM Auroro-A
# T2 sequence (O14965 1-403): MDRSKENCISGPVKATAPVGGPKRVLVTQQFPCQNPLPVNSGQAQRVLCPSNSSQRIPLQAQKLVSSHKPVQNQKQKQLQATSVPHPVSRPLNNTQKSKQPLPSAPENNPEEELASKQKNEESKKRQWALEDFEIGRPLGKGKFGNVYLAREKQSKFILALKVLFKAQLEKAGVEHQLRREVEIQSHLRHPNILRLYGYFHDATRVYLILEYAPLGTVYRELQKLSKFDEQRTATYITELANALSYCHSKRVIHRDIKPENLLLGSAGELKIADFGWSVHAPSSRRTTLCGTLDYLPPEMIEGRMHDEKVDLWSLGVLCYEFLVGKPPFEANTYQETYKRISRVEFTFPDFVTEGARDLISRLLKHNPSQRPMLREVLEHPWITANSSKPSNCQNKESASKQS
# Protocol: as §1, §2
# [1] = system: human MIAPaCa-2 pancreatic carcinoma xenograft; assay: Pancreatic carcinoma xenograft in athymic nude mice; format: in vivo, mouse; settings: MIAPaCa-2 xenograft, nude mice, single agent
# Protocol: The objective of the third study was to evaluate antitumor activities of novel multiple-kinase inhibitor NTW-3475 in human MIAPaCa-2 pancreatic carcinoma xenograft in athymic nude-Faxn1 mice.
# Four animals were randomly assigned to study groups. Each animal was weighed, and then injected subcutaneously in the left and right flank area with 0.1 ml of 5.0×10^7 MIAPaCa-2 cells per mL.
# Each test or control animal was on a 5-day on, two-day off for two cycles treatment schedule with negative control vehicle, positive control Abraxane at 20 mg/kg or 25, 50 mg/kg of NTW-3475. Tumor growth was measured with a digital hand held caliper twice weekly (once tumor emerges) prior to the first dosing and then two to three times weekly until euthanized.
# The objective of the third study was to evaluate antitumor activities of novel multiple-kinase inhibitor Compound 10, 11, 12, 53, 68, 82, 83, 88, and 90 in human MIAPaCa-2 pancreatic carcinoma xenograft in athymic nude-Faxn1 mice.
# Each test or control animal was on a 5-day on, two-day off for three cycles treatment schedule with negative control vehicle or 40 mg/kg of Compound 10, 11, 12, 53, 68, 82, 83, 88 and 90. Tumor growth was measured with a digital hand held caliper twice weekly (once tumor emerges) prior to the first dosing and then two to three times weekly until euthanized.
# K562 = assay: CellTiterBlue cell growth inhibition; format: cell-based; settings: Homo sapiens; K562, 72 hours
# Protocol: (§3) This example illustrated the proliferating cell growth inhibition of selected compounds from this invention. To do this, the cells were seeded into fresh Iscove's growth medium at a density of 0.4e6 cells/ml and grown in log phase for 24 hr. Cells were then resuspended in their fresh respective growth media at 0.1e^6 cells/ml and plated into 384 well black, clear-bottom microplates at 36 ul/well. Test compounds and controls were initially dissolved in DMSO at the desired concentration, then serially diluted to the assay buffer. These solutions were added and cells were incubated for 72 hours at 37° C. CellTiterBlue (Promega cat# G7572) was added on the Beckman FX. Plates were returned to the 37° C. CO2 incubator for 4 hr and then fluorescence was determined on the Victor plate reader. Data were processed using Microsoft Excel, and GI50 values were generated using Prism (GraphPad Software, San Diego, Calif.).
# MV4.11 = assay: CellTiterBlue cell growth inhibition; format: cell-based; settings: Homo sapiens; MV4.11, 72 hours
# Protocol: as §3
# RS4.11 = assay: CellTiterBlue cell growth inhibition; format: cell-based; settings: Homo sapiens; RS4.11, 72 hours
# Protocol: as §3
# KU812 = assay: CellTiterBlue cell growth inhibition; format: cell-based; settings: Homo sapiens; KU812, 72 hours
# Protocol: as §3
# Abl(h) = Abl(h) (Homo sapiens, UniProt P00519); assay: KinaseProfiler kinase assay; format: biochemical
# Sequence of Abl(h) (P00519 whole entry): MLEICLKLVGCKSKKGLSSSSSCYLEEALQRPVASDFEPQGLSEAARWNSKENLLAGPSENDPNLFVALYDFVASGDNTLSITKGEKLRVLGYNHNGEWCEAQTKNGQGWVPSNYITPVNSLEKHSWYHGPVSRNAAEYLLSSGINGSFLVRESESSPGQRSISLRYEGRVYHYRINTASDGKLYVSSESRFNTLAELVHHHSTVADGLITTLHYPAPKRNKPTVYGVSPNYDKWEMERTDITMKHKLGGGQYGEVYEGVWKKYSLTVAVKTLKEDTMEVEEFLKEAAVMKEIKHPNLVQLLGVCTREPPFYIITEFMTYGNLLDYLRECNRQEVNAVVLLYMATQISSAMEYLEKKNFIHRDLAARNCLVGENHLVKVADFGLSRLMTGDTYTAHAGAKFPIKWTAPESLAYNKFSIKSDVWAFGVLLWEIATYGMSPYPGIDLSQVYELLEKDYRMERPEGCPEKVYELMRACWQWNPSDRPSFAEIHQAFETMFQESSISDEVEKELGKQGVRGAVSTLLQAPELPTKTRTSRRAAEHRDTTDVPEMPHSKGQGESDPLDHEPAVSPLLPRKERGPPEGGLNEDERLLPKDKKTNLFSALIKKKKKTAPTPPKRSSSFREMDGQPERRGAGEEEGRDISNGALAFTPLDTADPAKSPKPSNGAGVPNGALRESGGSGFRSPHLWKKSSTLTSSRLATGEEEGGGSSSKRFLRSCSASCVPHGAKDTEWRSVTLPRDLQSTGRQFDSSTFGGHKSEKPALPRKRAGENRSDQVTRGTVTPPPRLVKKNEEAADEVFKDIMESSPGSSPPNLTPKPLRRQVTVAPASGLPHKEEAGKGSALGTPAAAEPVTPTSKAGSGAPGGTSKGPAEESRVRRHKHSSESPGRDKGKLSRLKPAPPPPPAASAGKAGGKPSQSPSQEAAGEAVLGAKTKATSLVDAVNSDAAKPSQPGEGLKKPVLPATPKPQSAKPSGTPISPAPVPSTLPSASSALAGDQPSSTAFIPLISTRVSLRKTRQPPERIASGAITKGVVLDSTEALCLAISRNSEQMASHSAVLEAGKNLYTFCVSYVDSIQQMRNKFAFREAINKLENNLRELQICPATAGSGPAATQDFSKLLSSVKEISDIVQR
# Sequence of KDR(h) (P35968 20-1356): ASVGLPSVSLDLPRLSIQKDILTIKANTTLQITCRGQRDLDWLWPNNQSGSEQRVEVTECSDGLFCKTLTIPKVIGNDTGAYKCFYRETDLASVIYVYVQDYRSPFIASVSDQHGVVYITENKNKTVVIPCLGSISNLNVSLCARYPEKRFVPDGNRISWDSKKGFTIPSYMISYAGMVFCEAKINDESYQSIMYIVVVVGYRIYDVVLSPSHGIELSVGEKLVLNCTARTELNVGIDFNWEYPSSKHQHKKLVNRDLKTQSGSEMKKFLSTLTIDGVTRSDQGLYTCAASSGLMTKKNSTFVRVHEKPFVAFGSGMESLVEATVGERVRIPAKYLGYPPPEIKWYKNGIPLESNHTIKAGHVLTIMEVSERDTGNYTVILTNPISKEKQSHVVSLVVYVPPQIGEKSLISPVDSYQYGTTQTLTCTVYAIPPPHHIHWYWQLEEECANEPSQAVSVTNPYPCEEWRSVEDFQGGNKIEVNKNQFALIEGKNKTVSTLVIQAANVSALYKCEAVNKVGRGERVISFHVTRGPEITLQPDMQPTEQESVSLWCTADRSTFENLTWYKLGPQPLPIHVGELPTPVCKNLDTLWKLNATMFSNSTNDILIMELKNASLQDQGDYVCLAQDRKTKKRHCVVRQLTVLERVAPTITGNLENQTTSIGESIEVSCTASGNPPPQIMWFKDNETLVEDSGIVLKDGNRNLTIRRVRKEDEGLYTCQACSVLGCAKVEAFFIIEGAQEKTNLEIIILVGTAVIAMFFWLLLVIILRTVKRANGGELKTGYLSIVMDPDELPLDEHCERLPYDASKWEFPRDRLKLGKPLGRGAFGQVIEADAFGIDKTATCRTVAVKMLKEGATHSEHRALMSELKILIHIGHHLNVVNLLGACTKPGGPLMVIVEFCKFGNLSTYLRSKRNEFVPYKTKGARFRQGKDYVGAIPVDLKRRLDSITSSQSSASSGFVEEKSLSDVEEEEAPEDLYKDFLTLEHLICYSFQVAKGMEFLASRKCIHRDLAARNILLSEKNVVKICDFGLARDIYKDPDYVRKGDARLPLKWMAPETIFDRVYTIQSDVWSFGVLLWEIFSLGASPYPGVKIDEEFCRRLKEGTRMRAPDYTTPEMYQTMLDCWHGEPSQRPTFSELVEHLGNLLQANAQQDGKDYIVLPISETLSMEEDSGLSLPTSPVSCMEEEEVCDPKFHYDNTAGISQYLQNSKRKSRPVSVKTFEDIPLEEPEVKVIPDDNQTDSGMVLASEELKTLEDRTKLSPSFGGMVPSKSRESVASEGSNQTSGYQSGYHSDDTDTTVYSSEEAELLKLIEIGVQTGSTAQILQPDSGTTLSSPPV
# Sequence of Ret(h) (P07949 29-1114): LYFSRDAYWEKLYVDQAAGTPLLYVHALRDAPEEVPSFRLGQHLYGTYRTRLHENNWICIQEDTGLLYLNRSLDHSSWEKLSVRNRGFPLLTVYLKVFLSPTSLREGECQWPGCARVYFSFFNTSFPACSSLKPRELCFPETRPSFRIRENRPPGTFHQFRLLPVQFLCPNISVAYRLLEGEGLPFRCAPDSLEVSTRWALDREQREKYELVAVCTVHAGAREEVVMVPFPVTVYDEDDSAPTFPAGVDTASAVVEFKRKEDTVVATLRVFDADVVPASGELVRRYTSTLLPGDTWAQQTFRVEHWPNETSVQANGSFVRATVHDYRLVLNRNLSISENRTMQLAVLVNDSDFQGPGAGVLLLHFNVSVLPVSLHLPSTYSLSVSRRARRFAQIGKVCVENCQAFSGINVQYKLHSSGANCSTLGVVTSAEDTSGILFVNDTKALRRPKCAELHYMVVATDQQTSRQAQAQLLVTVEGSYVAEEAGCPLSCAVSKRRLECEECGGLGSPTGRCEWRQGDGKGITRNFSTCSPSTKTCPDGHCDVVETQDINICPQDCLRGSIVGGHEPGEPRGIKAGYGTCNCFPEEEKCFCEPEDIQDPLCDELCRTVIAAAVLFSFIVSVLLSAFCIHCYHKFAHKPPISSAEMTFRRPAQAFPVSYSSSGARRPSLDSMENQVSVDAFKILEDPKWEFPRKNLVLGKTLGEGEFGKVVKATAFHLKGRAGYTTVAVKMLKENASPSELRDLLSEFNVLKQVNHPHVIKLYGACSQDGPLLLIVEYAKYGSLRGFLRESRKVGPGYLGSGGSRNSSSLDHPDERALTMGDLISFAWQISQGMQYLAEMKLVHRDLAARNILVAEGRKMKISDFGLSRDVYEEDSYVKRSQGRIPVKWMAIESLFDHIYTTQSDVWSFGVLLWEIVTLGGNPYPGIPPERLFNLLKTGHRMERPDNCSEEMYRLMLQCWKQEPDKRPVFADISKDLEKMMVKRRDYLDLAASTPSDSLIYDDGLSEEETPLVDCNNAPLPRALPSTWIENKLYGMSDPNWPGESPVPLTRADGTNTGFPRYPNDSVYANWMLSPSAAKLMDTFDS
SMILES,inhibition at 1 µM (KDR(h)) [%],inhibition at 1 µM (Ret(h)) [%],IC50 (Ret(h); read-out: IC50 (nM) Ret (h)) [nM],inhibition at 1 µM (cSRC(h)) [%],IC50 (cSRC(h); read-out: IC50 (nM) cSrc (h)) [nM],inhibition at 1 µM (Flt3(h)) [%],IC50 (Flt3(h); read-out: IC50 (nM) Flt3 (h)) [nM],inhibition at 1 µM (Aurora-A(h)) [%],IC50 (Aurora-A(h); read-out: IC50 (nM) Auroro-A (h)) [nM],GI50 (K562) [nM],GI50 (MV4.11) [nM],GI50 (RS4.11) [nM],inhibition at 1 µM (Abl(h)) [%],IC50 (Abl(h); read-out: IC50 (nM) Abl (h)) [nM],anti-tumor effect [1],GI50 (KU812) [nM]
Cc1cc2c(F)c(Oc3nc(Nc4cc(C5CC5)[nH]n4)cc(N4CCN(CCO)CC4)n3)ccc2[nH]1 [Compound 12],96,101,1,100,2,100,0.3,100,2,0.28,0.41,3.22,112,0.5,strong anti-tumor effect,0.27
C/C=C/c1cc(Nc2cc(N3CCC(OC)CC3)nc(Oc3cc(F)c4[nH]c(C)cc4c3F)n2)n[nH]1 [Compound 96],95,102,,101,,99,,98,,,,,110,,,
C/C=C/c1cc(Nc2cc(N3CCN(S(C)(=O)=O)CC3)nc(Oc3cc(F)c4[nH]c(C)cc4c3F)n2)n[nH]1 [Compound 98],96,102,,100,,100,,98,,,,,111,,,
C/C=C/c1cc(Nc2cc(N3CCN(CC)CC3)nc(Oc3cc(F)c4[nH]c(C)cc4c3F)n2)n[nH]1 [Compound 99],91,102,,103,,102,,101,,,,,113,,,
CCN1CCN(c2cc(Nc3cc(C)[nH]n3)nc(Oc3cc(F)c4[nH]c(C)cc4c3F)n2)CC1 [Compound 103],91,101,,96,,99,,97,,,,,113,,,
Cc1cc(Nc2cc(N3CCN(CCO)CC3)nc(Oc3cc(F)c4[nH]c(C)cc4c3F)n2)n[nH]1 [Compound 105],91,101,,96,,99,,98,,,,,112,,,
Cc1cc(Nc2cc(N3CCNCC3)nc(Oc3cc(F)c4[nH]c(C)cc4c3F)n2)n[nH]1 [Compound 106],95,98,,98,,99,,97,,,,,109,,,

# Further lines, with some results ahead:
inhibition at 1 µM (KDR(h)) [%],inhibition at 1 µM (Ret(h)) [%],IC50 (Ret(h); read-out: IC50 (nM) Ret (h)) [nM],inhibition at 1 µM (cSRC(h)) [%],IC50 (cSRC(h); read-out: IC50 (nM) cSrc (h)) [nM],inhibition at 1 µM (Flt3(h)) [%],IC50 (Flt3(h); read-out: IC50 (nM) Flt3 (h)) [nM],inhibition at 1 µM (Aurora-A(h)) [%],IC50 (Aurora-A(h); read-out: IC50 (nM) Auroro-A (h)) [nM],GI50 (K562) [nM],GI50 (MV4.11) [nM],GI50 (RS4.11) [nM],inhibition at 1 µM (Abl(h)) [%],IC50 (Abl(h); read-out: IC50 (nM) Abl (h)) [nM],SMILES,anti-tumor effect [1],GI50 (KU812) [nM]
90,99,,96,,98,,95,,,,,111,,Cc1cc(Nc2cc(N3CCOCC3)nc(Oc3cc(F)c4[nH]c(C)cc4c3F)n2)n[nH]1 [Compound 107],,
91,102,,104,,102,,100,,,,,113,,C/C=C/c1cc(Nc2cc(N3CCN(C)CC3)nc(Oc3ccc4[nH]c(C)cc4c3Cl)n2)n[nH]1 [Compound 112],,
91,101,,104,,101,,101,,,,,115,,C/C=C/c1cc(Nc2cc(N3CCN(C)CC3)nc(Oc3ccc4c(cc(C)n4C)c3F)n2)n[nH]1 [Compound 120],,
92,102,,104,,102,,91,,,,,116,,C/C=C/c1cc(Nc2cc(N3CCOCC3)nc(Oc3ccc4c(cc(C)n4C)c3F)n2)n[nH]1 [Compound 121],,
91,101,,104,,102,,101,,,,,109,,Cc1cc2c(F)c(Oc3nc(Nc4cc(C5CC5)[nH]n4)cc(N4CCN(C)CC4)n3)ccc2n1C [Compound 122],,
88,102,,104,,101,,100,,,,,114,,Cc1cc2c(F)c(Oc3nc(Nc4cc(C5CC5)[nH]n4)cc(N4CCOCC4)n3)ccc2n1C [Compound 123],,
